Test results reported in PubChem BioAssay AID1259407 (Chemical Carcinogenesis Research Information System (CCRIS), 2018).
Calls of active or inactive are those of the source. The rule behind the calls is not given here.

System: CCRIS mutagenicity, Ames/micronucleus/aberration tests
Test: CCRIS mutagenicity studies
[1] = Test System: AMES SALMONELLA TYPHIMURIUM, Strain/Indicator: TA98, Metabolic Activation: NONE, Method: PREINCUBATION
[2] = Test System: AMES SALMONELLA TYPHIMURIUM, Strain/Indicator: TA98, Metabolic Activation: NONE, Method: STANDARD PLATE
[3] = Test System: AMES SALMONELLA TYPHIMURIUM, Strain/Indicator: TA100, Metabolic Activation: NONE, Method: STANDARD PLATE
[4] = Test System: AMES SALMONELLA TYPHIMURIUM, Strain/Indicator: TA1535, Metabolic Activation: NONE, Method: STANDARD PLATE

## CC[C@H]1OC(=O)[C@H](C)[C@@H](O[C@H]2C[C@@](C)(OC)[C@@H](O)[C@H](C)O2)[C@H](C)[C@@H](O[C@@H]2O[C@H](C)C[C@H](N(C)C)[C@H]2O)[C@](C)(O)C[C@@H](C)/C(=N\OCOCCOC)[C@H](C)[C@@H](O)[C@]1(C)O
[1]
  mutagenic call: inactive; negative
Test System: AMES SALMONELLA TYPHIMURIUM, Strain/Indicator: TA98, Metabolic Activation: RAT, LIVER, S-9, PHENOBARBITAL, Method: PREINCUBATION
  mutagenic call: inactive; negative
Test System: AMES SALMONELLA TYPHIMURIUM, Strain/Indicator: TA100, Metabolic Activation: NONE, Method: PREINCUBATION
  mutagenic call: inactive; negative
Test System: AMES SALMONELLA TYPHIMURIUM, Strain/Indicator: TA100, Metabolic Activation: RAT, LIVER, S-9, PHENOBARBITAL, Method: PREINCUBATION
  mutagenic call: inactive; negative
Test System: AMES SALMONELLA TYPHIMURIUM, Strain/Indicator: TA1535, Metabolic Activation: NONE, Method: PREINCUBATION
  mutagenic call: inactive; negative
Test System: AMES SALMONELLA TYPHIMURIUM, Strain/Indicator: TA1535, Metabolic Activation: RAT, LIVER, S-9, PHENOBARBITAL, Method: PREINCUBATION
  mutagenic call: inactive; negative
Test System: AMES SALMONELLA TYPHIMURIUM, Strain/Indicator: TA1537, Metabolic Activation: NONE, Method: PREINCUBATION
  mutagenic call: inactive; negative
Test System: AMES SALMONELLA TYPHIMURIUM, Strain/Indicator: TA1537, Metabolic Activation: RAT, LIVER, S-9, PHENOBARBITAL, Method: PREINCUBATION
  mutagenic call: inactive; negative
Test System: E. COLI, Strain/Indicator: WP2 UVRA, Metabolic Activation: NONE, Method: PREINCUBATION
  mutagenic call: inactive; negative
Test System: E. COLI, Strain/Indicator: WP2 UVRA, Metabolic Activation: RAT, LIVER, S-9, PHENOBARBITAL, Method: PREINCUBATION
  mutagenic call: inactive; negative

## CCCCCCCCCCCCCc1ccccc1
[2]
  mutagenic call: inactive; negative
Test System: AMES SALMONELLA TYPHIMURIUM, Strain/Indicator: TA98, Metabolic Activation: RAT, LIVER, S-9, AROCLOR 1254 (10%), Method: STANDARD PLATE
  mutagenic call: inactive; negative
[3]
  mutagenic call: inactive; negative
Test System: AMES SALMONELLA TYPHIMURIUM, Strain/Indicator: TA100, Metabolic Activation: RAT, LIVER, S-9, AROCLOR 1254 (10%), Method: STANDARD PLATE
  mutagenic call: inactive; negative
[4]
  mutagenic call: inactive; negative
Test System: AMES SALMONELLA TYPHIMURIUM, Strain/Indicator: TA1535, Metabolic Activation: RAT, LIVER, S-9, AROCLOR 1254 (10%), Method: STANDARD PLATE
  mutagenic call: inactive; negative
Test System: AMES SALMONELLA TYPHIMURIUM, Strain/Indicator: TA1537, Metabolic Activation: NONE, Method: STANDARD PLATE
  mutagenic call: inactive; negative
Test System: AMES SALMONELLA TYPHIMURIUM, Strain/Indicator: TA1537, Metabolic Activation: RAT, LIVER, S-9, AROCLOR 1254 (10%), Method: STANDARD PLATE
  mutagenic call: inactive; negative
Test System: CHINESE HAMSTER OVARY, Strain/Indicator: CHO (HGPRT), Metabolic Activation: NONE
  mutagenic call: inactive; negative
Test System: CHINESE HAMSTER OVARY, Strain/Indicator: CHO (HGPRT), Metabolic Activation: RAT, LIVER, S-9, AROCLOR 1254 (1%)
  mutagenic call: inactive; negative

## Cc1ccc2[nH]c3c(C)cc([N+](=O)[O-])c(C)c3c2c1
[2]
  mutagenic call: active; positive
Test System: AMES SALMONELLA TYPHIMURIUM, Strain/Indicator: TA98, Metabolic Activation: RAT LIVER S-9, AROCLOR 1254, Method: STANDARD PLATE
  mutagenic call: active; positive
[3]
  mutagenic call: inactive; negative
Test System: AMES SALMONELLA TYPHIMURIUM, Strain/Indicator: TA100, Metabolic Activation: RAT LIVER S-9, AROCLOR 1254, Method: STANDARD PLATE
  mutagenic call: inactive; negative
Test System: AMES SALMONELLA TYPHIMURIUM, Strain/Indicator: TA1537, Metabolic Activation: RAT LIVER S-9, AROCLOR 1254, Method: STANDARD PLATE
  mutagenic call: active; positive
Test System: AMES SALMONELLA TYPHIMURIUM, Strain/Indicator: TA1977, Metabolic Activation: NONE, Method: STANDARD PLATE
  mutagenic call: inactive; negative
Test System: AMES SALMONELLA TYPHIMURIUM, Strain/Indicator: TA1977, Metabolic Activation: RAT LIVER S-9, AROCLOR 1254, Method: STANDARD PLATE
  mutagenic call: active; positive

## NC(=O)N(Cc1ccccc1)N=O
Test System: AMES SALMONELLA TYPHIMURIUM, Strain/Indicator: TA100, Metabolic Activation: NONE, Method: LIQUID INCUBATION
  mutagenic call: active; positive
Test System: AMES SALMONELLA TYPHIMURIUM, Strain/Indicator: TA1535, Metabolic Activation: NONE, Method: LIQUID INCUBATION
  mutagenic call: inactive; negative

## CNC(=O)C=Cc1ccc([N+](=O)[O-])o1
[1]
  mutagenic call: active; positive

## COc1cccc2c1ccc1c(C(=O)O)cc3c(c12)OCO3
Test System: AMES SALMONELLA TYPHIMURIUM, Strain/Indicator: D3052, Metabolic Activation: NONE, Method: STANDARD PLATE
  mutagenic call: inactive; negative
Test System: AMES SALMONELLA TYPHIMURIUM, Strain/Indicator: D3052, Metabolic Activation: RAT, LIVER, S-9, PHENOBARBITAL, Method: STANDARD PLATE
  mutagenic call: inactive; negative
Test System: AMES SALMONELLA TYPHIMURIUM, Strain/Indicator: G46, Metabolic Activation: NONE, Method: STANDARD PLATE
  mutagenic call: inactive; negative
Test System: AMES SALMONELLA TYPHIMURIUM, Strain/Indicator: G46, Metabolic Activation: RAT, LIVER, S-9, PHENOBARBITAL, Method: STANDARD PLATE
  mutagenic call: inactive; negative
Test System: AMES SALMONELLA TYPHIMURIUM, Strain/Indicator: TA98(NR), Metabolic Activation: NONE, Method: STANDARD PLATE
  mutagenic call: active; positive
Test System: AMES SALMONELLA TYPHIMURIUM, Strain/Indicator: TA98, Metabolic Activation: RAT, LIVER, S-9, PHENOBARBITAL, Method: STANDARD PLATE
  mutagenic call: inactive; negative
Test System: AMES SALMONELLA TYPHIMURIUM, Strain/Indicator: TA100(NR), Metabolic Activation: NONE, Method: STANDARD PLATE
  mutagenic call: active; positive
Test System: AMES SALMONELLA TYPHIMURIUM, Strain/Indicator: TA100, Metabolic Activation: RAT, LIVER, S-9, PHENOBARBITAL, Method: STANDARD PLATE
  mutagenic call: inactive; negative
Test System: AMES SALMONELLA TYPHIMURIUM, Strain/Indicator: TA102, Metabolic Activation: NONE, Method: STANDARD PLATE
  mutagenic call: active; positive
[4]
  mutagenic call: inactive; negative
Test System: AMES SALMONELLA TYPHIMURIUM, Strain/Indicator: TA1535, Metabolic Activation: RAT, LIVER, S-9, PHENOBARBITAL, Method: STANDARD PLATE
  mutagenic call: inactive; negative
Test System: AMES SALMONELLA TYPHIMURIUM, Strain/Indicator: TA1978, Metabolic Activation: NONE, Method: STANDARD PLATE
  mutagenic call: inactive; negative
Test System: AMES SALMONELLA TYPHIMURIUM, Strain/Indicator: TA1978, Metabolic Activation: RAT, LIVER, S-9, PHENOBARBITAL, Method: STANDARD PLATE
  mutagenic call: inactive; negative
Test System: AMES SALMONELLA TYPHIMURIUM, Strain/Indicator: TM677/8-AZAGUANINE, Metabolic Activation: NONE, Method: SUSPENSION/PLATE
  mutagenic call: active; positive
Test System: AMES SALMONELLA TYPHIMURIUM, Strain/Indicator: YG1021, Metabolic Activation: NONE, Method: STANDARD PLATE
  mutagenic call: inactive; negative
Test System: AMES SALMONELLA TYPHIMURIUM, Strain/Indicator: YG1026, Metabolic Activation: NONE, Method: STANDARD PLATE
  mutagenic call: inactive; negative
Test System: CHINESE HAMSTER OVARY, Strain/Indicator: CHO-K1-BH4 (HGPRT), Metabolic Activation: NONE
  mutagenic call: active; positive
